Data on 23 compounds can be found in patent publication US11891386B2, “Indole compounds and their use” (ARIAGEN, INC., priority 2017, dated 2024).

The experiment has as its system IL-21 secretion from human CD4+ T cells. Briefly: Suppression of IL-21 secretion by activated Th17 cells (ALPHALISA). To be noted: for IC50: 120 h, human CD4+ T cells under Th17 stimulation, 5 days; for potency in suppressing IL-21 secretion, in words: human CD4+ T cells. In kind it is cell-based. From the text:
IL-21 is a pro-inflammatory cytokine secreted by CD4^+ Th17 cells and is thought to serve as a T-cell growth factor playing overlapping roles with IL-2. This Example describes a study that measured the IC50 values of the indole compounds disclosed herein for suppressing IL-21 secretion from human CD4^+ T cells that had been treated with stimulatory conditions that gave rise to TH17 cells (see, e.g., Dobritsa et al., J Biomol Screen. 18(1):75-84 (2013)).
Human CD4^+ T cells were purchased from Lonza Walkersville Inc. (Walkersville, MD). DMSO was obtained from Sigma (St. Louis, MO). Greiner cell culture plates, Gibco DMEM cell culture medium, media supplements, and antibiotics, as well as DYNABEADS Human T-Activator CD3/CD28 and R&D Systems TGF-β, IL-1β and IL-23 and Invitrogen IL-6 cytokines, were purchased through Fisher Scientific (Pittsburgh, PA). ALPHALISA assay plates and the Human Interleukin-21 ALPHALISA kit was obtained from Perkin Elmer (Boston, MA).
Cell culture plates were pre-coated with test compounds in serial dilutions for generating a 10-point, 3-fold dose response curve with a top concentration of 1 μM or 100 nM. To do this, compounds were dissolved in DMSO and added to an ECHO qualified plate for transfer to the cell culture plate with the ECHO555. The indole compounds to be tested were dissolved in […] and wells were backfilled with DMSO so that all treatments received 0.1% DMSO final volume. Positive control (0% inhibition) wells, in which compounds were replaced with […], were included on each plate. At least 15×10^6 frozen CD4^+ T cells per plate of compounds were thawed in a 37° C. water bath, and the cells were washed twice with 10 mL of the complete medium (DMEM supplemented with 10% fetal bovine serum (FBS), 100 U/mL penicillin, and 100 μg/mL streptomycin), followed by centrifugation (250×g, 10 min). Cells were re-suspended to the desired density, and cultured in 384-well treated sterile cell culture plates in a total volume of 50 μL per well. Each plate included wells with induced and un-induced cells.
Induced cells were activated in the complete medium with DYNABEADS Human T-Activator CD3/CD28 at a bead-to-cell ratio of 1:2.5 and stimulated with the following cytokines: transforming growth factor-β (TGF-β, 5 ng/mL), IL-6 (20 ng/mL), IL-23 (20 ng/mL), and IL-1β (10 ng/mL).
Un-induced cells were left in complete medium with no additional supplements. Plates were incubated at 37° C., 5% CO2 for a total of 5 days. Upon completion of the 5 day incubation period, cells were spun down (1,000×g, 1 min) and supernatant was transferred to the ALPHALISA assay plate using the Mosquito HTS liquid handler (TTP Labtech Inc., Cambridge, MA).
IL-21 levels in cell supernatants and cell-free control samples were measured using the ALPHALISA assay kit from Perkin Elmer, following the manufacturer's instructions. The assay was run at room temperature in 384-well ALPHAPLATES (cat. 6005350; Boston, MA). Briefly, immediately after transferring the cell supernatant to the assay plate, anti-IL-21 acceptor beads were added with the CERTUS FLEX liquid handler (LEAP Technologies, Morrisville, NC). The plate was sealed, spun down and incubated for 30 minutes. After incubation, the seal was removed, anti-IL-21 biotinylated antibody was added with the CERTUS FLEX, and the plate was sealed again, spun down and incubated for 60 minutes. Next, the seal was removed, streptavidin-coated donor beads were added with the CERTUS FLEX, and the plate was sealed, spun down and incubated for another 60 minutes. Finally, the seal was removed and the plate was read using the ENVISION reader (Perkin Elmer, Boston, MA) set with an excitation filter of 680 nm and an emission filter of 615 nm. Two independent IL-21 standard dilution curves were run per plate with analyte provided in the ALPHALISA kit.
For estimation of the assay performance, Z′ values were calculated for each plate, comparing positive and negative controls. […]
(In general: In Alpha technology, singlet oxygen from a donor bead excites a nearby acceptor bead.)

Turning to `O=C(c1nc(-c2nnco2)cs1)c1c[nH]c2ccccc12` [ARI-056, (4-(1,3,4-oxadiazol-2-yl)thiazol-2-yl)(1H-indol-3-yl)methanone], half-maximal inhibition (IC50) was put at 4.9 nM.

In the case of `Nc1nnc(-c2csc(C(=O)c3c[nH]c4ccccc34)n2)s1` [ARI-090, (4-(5-amino-1,3,4-thiadiazol-2-yl)thiazol-2-yl)(1H-indol-3-yl)methanone], the midpoint of inhibition, the IC50, lay at 8.4 nM.

Consider `CNC(=O)c1csc(C(=O)c2c[nH]c3ccc(Cl)cc23)n1` [ARI-049, 2-(5-chloro-1H-indole-3-carbonyl)-N-methylthiazole-4-carboxamide], for which half-maximal inhibition (IC50) required 10.1 nM.

Take `Cc1nc(-c2csc(C(=O)c3c[nH]c4ccccc34)n2)no1` [ARI-030, (1H-indol-3-yl)(4-(5-methyl-1,2,4-oxadiazol-3-yl)thiazol-2-yl)methanone]: inhibition was half-maximal at 40 nM (IC50) and the “potency in suppressing IL-21 secretion, in words” value (“potency” for short) is recorded as “among the least potent”.

Turning to `Cc1noc(-c2csc(C(=O)c3c[nH]c4ccccc34)n2)n1` [ARI-031, (1H-indol-3-yl)(4-(3-methyl-1,2,4-oxadiazol-5-yl)thiazol-2-yl)methanone], the IC50 was found to be 42.6 nM and the “potency” value is on record as “among the least potent”.

As for `CCC(=O)c1csc(C(=O)c2c[nH]c3ccc(Cl)cc23)n1` [ARI-067, 1-(2-(5-chloro-1H-indole-3-carbonyl)thiazol-4-yl)propan-1-one], inhibition was half-maximal at 6.3 nM (IC50).

As for `Cc1nnc(-c2csc(C(=O)c3c[nH]c4ccccc34)n2)o1` [ARI-060, (1H-indol-3-yl)(4-(5-methyl-1,3,4-oxadiazol-2-yl)thiazol-2-yl)methanone], the IC50 worked out at 110 nM and the “potency” value is listed as “among the least potent”.

For `CCC(=O)c1csc(C(=O)c2c[nH]c3cccc(F)c23)n1` [ARI-142, 1-(2-(4-fluoro-1H-indole-3-carbonyl)thiazol-4-yl)propan-1-one], the IC50 was found to be 209 nM and the “potency” value is recorded as “least active in suppressing IL-21 secretion”.

As to `COC(=O)c1csc(C(=O)c2c[nH]c3ccccc23)n1` [ARI-001, ITE], the IC50 worked out at 38.2 nM.

In turn, `NCc1nnc(-c2csc(C(=O)c3c[nH]c4c(F)cccc34)n2)o1` [ARI-145, (4-(5-(aminomethyl)-1,3,4-oxadiazol-2-yl)thiazol-2-yl)(7-fluoro-1H-indol-3-yl)methanone] had a concentration for half-maximal inhibition (IC50) of 46.9 nM.

`Nc1nnc(-c2csc(C(=O)c3c[nH]c4ccccc34)n2)o1` [ARI-083, (4-(5-amino-1,3,4-oxadiazol-2-yl)thiazol-2-yl)(1H-indol-3-yl)methanone]: the 50% inhibitory concentration (IC50) turned out to be 0.3 nM and the “potency” value is reported as “most potent”.

Compound `CCC(=O)c1csc(C(=O)c2c[nH]c3c(F)cccc23)n1` [ARI-140, 1-(2-(7-fluoro-1H-indole-3-carbonyl)thiazol-4-yl)propan-1-one] yielded an IC50 of 8.6 nM.

On to `Nc1nnc(-c2csc(C(=O)c3c[nH]c4ccc(F)cc34)n2)o1` [ARI-148, (4-(5-amino-1,3,4-oxadiazol-2-yl)thiazol-2-yl)(5-fluoro-1H-indol-3-yl)methanone], for which the IC50 came out at 5.9 nM.

For `CNC(=O)c1csc(C(=O)c2c[nH]c3ccccc23)n1` [ARI-004], 231 nM corresponded to half-maximal inhibition (IC50) and the “potency” value is listed as “weak activity”.

The compound `CCC(=O)c1csc(C(=O)c2c[nH]c3ccc(F)cc23)n1` [ARI-087, 1-(2-(5-fluoro-1H-indole-3-carbonyl)thiazol-4-yl)propan-1-one] returned an IC50 of 25.4 nM.

Consider `CNC(=O)c1csc(C(=O)c2c[nH]c3ccc(F)cc23)n1` [ARI-065, 2-(5-fluoro-1H-indole-3-carbonyl)-N-methylthiazole-4-carboxamide], for which the IC50 stood at 14 nM.

For the compound `NCc1nc(-c2csc(C(=O)c3c[nH]c4c(F)cccc34)n2)no1` [ARI-146, (4-(5-(aminomethyl)-1,2,4-oxadiazol-3-yl)thiazol-2-yl)(7-fluoro-1H-indol-3-yl)methanone], the IC50 came out at 13.4 nM.

Consider `COC(=O)c1csc(C(=O)c2c[nH]c3ccc(F)cc23)n1` [ARI-066, methyl 2-(5-fluoro-1H-indole-3-carbonyl)thiazole-4-carboxylate], for which half-maximal inhibition (IC50) was put at 48.6 nM.

With `Nc1nnc(-c2csc(C(=O)c3c[nH]c4cc(Cl)c(Cl)cc34)n2)o1` [ARI-120, (4-(5-amino-1,3,4-oxadiazol-2-yl)thiazol-2-yl)(5,6-dichloro-1H-indol-3-yl)methanone], half-maximal inhibition (IC50) required 0.3 nM and the “potency” value is listed as “most potent”.

With `Nc1nnc(-c2csc(C(=O)c3c[nH]c4c(F)cccc34)n2)o1` [ARI-118, (4-(5-amino-1,3,4-oxadiazol-2-yl)thiazol-2-yl)(7-fluoro-1H-indol-3-yl)methanone], half-maximal inhibition (IC50) required 0.8 nM and the “potency” value was “most potent”. In addition, the “times more potent than ARI-087” value (IL-21 secretion assay) is listed as “about 32 times”.

As for `COC(=O)c1csc(C(=O)c2c[nH]c3ccc(Cl)cc23)n1` [ARI-055, methyl 2-(5-chloro-1H-indole-3-carbonyl)thiazole-4-carboxylate], the IC50 was 73.6 nM.

For the compound `CCC(=O)c1csc(C(=O)c2c[nH]c3cc(F)c(F)cc23)n1` [ARI-149, 1-(2-(5,6-difluoro-1H-indole-3-carbonyl)thiazol-4-yl)propan-1-one], the half-maximal inhibitory concentration (IC50) was 30.3 nM.

In the case of `CCC(=O)c1csc(C(=O)c2c[nH]c3cc(F)ccc23)n1` [ARI-143, 1-(2-(6-fluoro-1H-indole-3-carbonyl)thiazol-4-yl)propan-1-one], half-maximal inhibition (IC50) was put at 18.8 nM.

As usually defined, the IC50 is the concentration that gives 50% inhibition. Read a low IC50 as inhibition by little substance.
